Results published in patent US20250333397A1 (REMIX THERAPEUTICS INC., priority 2021, published 2025).
Where two headings read alike, the source gives them in different places.

Experiments:
Assay type in all cases: cell-based, human
[1] = tested on: Target C mRNA; assay: RT-qPCR splicing assay panel, Target C canonical junction (CJ) mRNA
Method in brief: (§1)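 24 h compound exposure of A673 or K562 cells at 37 °C, 10 uM top final concentration, 3-fold steps, DMSO ≤0.25%. Splice-isoform levels determined by qPCR on cDNA from lysates, run at least in duplicate; values expressed as RQ normalized to GAPDH, GUSB or PPIA and DMSO.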

[2] = tested on: HTT mRNA; assay: RT-qPCR splicing assay, HTT canonical (CJ) and alternative (AJ) junction mRNA; settings: for AC50: read-out: HTT AJ (AC50, increase in AJ mRNA)
Method in brief: as §1

[3] = tested on: MYB mRNA; assay: RT-qPCR splicing assay, MYB canonical (CJ) and alternative (AJ) junction mRNA; settings: for AC50: read-out: MYB AJ (AC50, increase in AJ mRNA)
Method in brief: as §1

[4] = tested on: SMN2 mRNA; assay: RT-qPCR splicing assay panel, SMN2 canonical junction (CJ) mRNA
Method in brief: as §1

[5] = Homo sapiens, Table 4B, gene panel, read-out: Target C (IC50, decrease in CJ mRNA levels)
[6] = Homo sapiens, 24 h, Table 3B, A673 or K562 cells, 24 h treatment
[7] = Homo sapiens, 24 h, Table 3B, A673 or K562 cells, 24 h treatment, read-out: HTT CJ (IC50, decrease in CJ mRNA)
[8] = Homo sapiens, Table 4B, gene panel, read-out: HTT (IC50, decrease in CJ mRNA levels)
[9] = Homo sapiens, 24 h, Table 3B, A673 or K562 cells, 24 h treatment, read-out: MYB CJ (IC50, decrease in CJ mRNA)
[10] = Homo sapiens, Table 4B, gene panel, read-out: MYB (IC50, decrease in CJ mRNA levels)
[11] = Homo sapiens, Table 4B, gene panel, read-out: SMN2 (IC50, decrease in CJ mRNA levels)
[12] = Homo sapiens, canonical junction (CJ) mRNA, RT-qPCR panel, Table 4A, read-out: Target C, decrease in CJ mRNA levels, IC50
[13] = Homo sapiens, 24 h, Table 3A, A673 or K562 cells, 24 h treatment
[14] = Homo sapiens, 24 h, Table 3A, A673 or K562 cells, 24 h treatment, read-out: HTT CJ (IC50, decrease in CJ mRNA)
[15] = Homo sapiens, canonical junction (CJ) mRNA, RT-qPCR panel, Table 4A, read-out: HTT, decrease in CJ mRNA levels, IC50
[16] = Homo sapiens, 24 h, Table 3A, A673 or K562 cells, 24 h treatment, read-out: MYB CJ (IC50, decrease in CJ mRNA)
[17] = Homo sapiens, canonical junction (CJ) mRNA, RT-qPCR panel, Table 4A, read-out: MYB, decrease in CJ mRNA levels, IC50
[18] = Homo sapiens, canonical junction (CJ) mRNA, RT-qPCR panel, Table 4A, read-out: SMN2, decrease in CJ mRNA levels, IC50
[19] = Table 3A, A673 or K562 cells, 24 h treatment

Row | Compound | IC50 [1, 12] | AC50 [2, 13] | IC50 [2, 14] | IC50 [2, 15] | AC50 [3, 13] | IC50 [3, 16] | IC50 [3, 17] | IC50 [4, 18] | also measured
1 | Cc1nc2cc(O)c(-c3ccc(N4CCC(NC(C)(C)C(C)C)C4)nn3)cc2o1 (stereo not drawn) [Compound 862] |  |  |  |  |  |  |  |  | IC50 [1, 5]: 1000 to 10000 nM; AC50 [2, 6]: 100 to 1000 nM; IC50 [2, 7]: 100 to 1000 nM; IC50 [2, 8]: 100 to 1000 nM; AC50 [3, 6]: 1000 to 10000 nM; IC50 [3, 9]: 1000 to 10000 nM; IC50 [3, 10]: 1000 to 10000 nM; IC50 [4, 11]: 100 to 1000 nM
2 | COc1cc(-c2ccc(-c3ccc(N4CC[C@H](N[C@H]5C[C@H](F)C5)C4)nn3)c(O)c2)ncn1 [Compound 426] | 1000 to 10000 nM | 100 to 1000 nM | 100 to 1000 nM | 100 to 1000 nM | 1000 to 10000 nM | 1000 to 10000 nM | 1000 to 10000 nM | 100 to 1000 nM | 
3 | COc1cc(-c2ccc(-c3ccc(N4CC[C@@H](NCC5CC5)C4)nn3)c(O)c2)cnn1 [Compound 288] | 100 to 1000 nM | 100 to 1000 nM | < 100 nM | < 100 nM | 100 to 1000 nM | 100 to 1000 nM | 100 to 1000 nM | < 100 nM | 
4 | COc1cc(-c2cc(O)c(-c3ccc(N4CCC(C)(NC5CCC5)C4)nn3)cc2F)cnn1 (stereo not drawn) [Compound 310, 2-{6-[3-(cyclobutylamino)-3-methylpyrrolidin-1-yl]pyridazin-3-yl}-4-fluoro-5-(6-methoxypyridazin-4-yl)phenol] | 100 to 1000 nM | 100 to 1000 nM | < 100 nM | < 100 nM | 100 to 1000 nM | 100 to 1000 nM | 100 to 1000 nM | < 100 nM | 
5 | Cn1c(=O)oc2cc(-c3ccc(N4CCC(NC(C)(C)C)C4)nn3)c(O)cc21 (stereo not drawn) [Compound 800] |  |  |  |  |  |  |  |  | IC50 [1, 5]: 100 to 1000 nM; AC50 [2, 6]: 100 to 1000 nM; IC50 [2, 7]: 100 to 1000 nM; IC50 [2, 8]: 100 to 1000 nM; AC50 [3, 6]: 100 to 1000 nM; IC50 [3, 9]: 1000 to 10000 nM; IC50 [3, 10]: 1000 to 10000 nM; IC50 [4, 11]: < 100 nM
6 | Oc1cc(-c2cnn3c2CCC3)c(F)cc1-c1ccc(N2CCC(NC3CCC3)C2)nn1 (stereo not drawn) [Compound 443] | > 10000 nM | 1000 to 10000 nM | 1000 to 10000 nM | 1000 to 10000 nM | > 10000 nM | > 10000 nM | > 10000 nM | 1000 to 10000 nM | 
7 | Cn1ncc(-c2ccc(-c3ccc(N4CC[C@@H](NC(C)(C)C)C4)nn3)c(O)c2)cc1=O [Compound 297, 5-(4-{6-[(3R)-3-(tert-butylamino)pyrrolidin-1-yl]pyridazin-3-yl}-3-hydroxyphenyl)-2-methylpyridazin-3-one] | < 100 nM | < 100 nM | < 100 nM | < 100 nM | < 100 nM | < 100 nM | < 100 nM | < 100 nM | 
8 | CCC(C)(C)NC1CCN(c2ccc(-c3cc4oc(C)nc4cc3O)nn2)C1 (stereo not drawn) [Compound 836] |  |  |  |  |  |  |  |  | IC50 [1, 5]: 1000 to 10000 nM; AC50 [2, 6]: 1000 to 10000 nM; IC50 [2, 7]: 100 to 1000 nM; IC50 [2, 8]: 100 to 1000 nM; AC50 [3, 6]: 1000 to 10000 nM; IC50 [3, 9]: 1000 to 10000 nM; IC50 [3, 10]: 1000 to 10000 nM; IC50 [4, 11]: 100 to 1000 nM
9 | CCc1cc(-c2ccc(-c3ccc(N4CC[C@H](NC5CCC5)C4)nn3)c(O)c2)cnn1 [Compound 278] | > 10000 nM | > 10000 nM | 1000 to 10000 nM | 1000 to 10000 nM | > 10000 nM | 1000 to 10000 nM | 1000 to 10000 nM | 1000 to 10000 nM | 
10 | Cc1ncc(-c2cc(O)c(-c3ccc(N4CC[C@@H](CNC5CCC5)C4)nn3)cc2F)s1 [Compound 453] | 1000 to 10000 nM |  |  | < 100 nM |  |  | 1000 to 10000 nM | < 100 nM | 
11 | Cc1nnc(-c2cc(O)c(-c3ccc(N4CC[C@H](NCC5CC5)C4)nn3)cc2F)s1 [Compound 401] | 100 to 1000 nM | 100 to 1000 nM | 100 to 1000 nM | 100 to 1000 nM | 1000 to 10000 nM | 1000 to 10000 nM | 1000 to 10000 nM | 100 to 1000 nM | 
12 | Cc1nc2cc(O)c(-c3ccc(N4CC[C@H](NC(C)(C)C)C4)nn3)cc2o1 [Compound 813] |  |  |  |  |  |  |  |  | IC50 [1, 5]: 1000 to 10000 nM; AC50 [2, 6]: 1000 to 10000 nM; IC50 [2, 7]: 100 to 1000 nM; IC50 [2, 8]: 100 to 1000 nM; AC50 [3, 6]: 1000 to 10000 nM; IC50 [3, 9]: 1000 to 10000 nM; IC50 [3, 10]: 1000 to 10000 nM; IC50 [4, 11]: 100 to 1000 nM
13 | Cc1nc2cc(O)c(-c3ccc(N4CCC(NC(C)(C)C(C)(C)C)C4)nn3)cc2o1 (stereo not drawn) [Compound 835] |  |  |  |  |  |  |  |  | IC50 [1, 5]: 100 to 1000 nM; AC50 [2, 6]: 100 to 1000 nM; IC50 [2, 7]: 100 to 1000 nM; IC50 [2, 8]: 100 to 1000 nM; AC50 [3, 6]: 100 to 1000 nM; IC50 [3, 9]: 100 to 1000 nM; IC50 [3, 10]: 100 to 1000 nM; IC50 [4, 11]: 100 to 1000 nM
14 | COc1cc(-c2cc(O)c(-c3ccc(N4CC[C@H](NC5CC5)C4)nn3)cc2F)cnn1 [Compound 214, 2-{6-[(3S)-3-(cyclopropylamino)pyrrolidin-1-yl]pyridazin-3-yl}-4-fluoro-5-(6-methoxypyridazin-4-yl)phenol] | 100 to 1000 nM | < 100 nM | < 100 nM | < 100 nM | 100 to 1000 nM | 100 to 1000 nM | 100 to 1000 nM | < 100 nM | 
15 | Oc1cc(-c2cn[nH]c2)ccc1-c1ccc(N2CCC(NC3CC3)C2)nn1 (stereo not drawn) [Compound 100, 2-(6-(3-(cyclopropylamino)pyrrolidin-1-yl)pyridazin-3-yl)-5-(1H-pyrazol-4-yl)phenol] |  |  |  |  |  |  |  |  | IC50 ([1]; canonical junction (CJ) mRNA, RT-qPCR panel, Table 4A, read-out: Target C, decrease in CJ mRNA levels, IC50): < 100 nM; AC50 [2, 19]: < 100 nM; IC50 ([2]; Table 3A, A673 or K562 cells, 24 h treatment, read-out: HTT CJ (IC50, decrease in CJ mRNA)): < 100 nM; IC50 ([2]; canonical junction (CJ) mRNA, RT-qPCR panel, Table 4A, read-out: HTT, decrease in CJ mRNA levels, IC50): < 100 nM; AC50 [3, 19]: 100 to 1000 nM; IC50 ([3]; Table 3A, A673 or K562 cells, 24 h treatment, read-out: MYB CJ (IC50, decrease in CJ mRNA)): 100 to 1000 nM; IC50 ([3]; canonical junction (CJ) mRNA, RT-qPCR panel, Table 4A, read-out: MYB, decrease in CJ mRNA levels, IC50): 100 to 1000 nM; IC50 ([4]; canonical junction (CJ) mRNA, RT-qPCR panel, Table 4A, read-out: SMN2, decrease in CJ mRNA levels, IC50): < 100 nM
16 | Cc1ncc(-c2ccc(-c3ccc(N4CCC(NC5CCC5)C4)nn3)nc2F)s1 (stereo not drawn) [Compound 349] | 1000 to 10000 nM | 100 to 1000 nM | 100 to 1000 nM | 100 to 1000 nM | 100 to 1000 nM | 100 to 1000 nM | 100 to 1000 nM | 100 to 1000 nM | 
17 | COc1cc(-c2cc(O)c(-c3ccc(N4CC[C@](C)(NC5CCC5)C4)nn3)cc2F)cnn1 (single isomer, unassigned) [Compound 309, 2-{6-[3-(cyclobutylamino)-3-methylpyrrolidin-1-yl]pyridazin-3-yl}-4-fluoro-5-(6-methoxypyridazin-4-yl)phenol] | 100 to 1000 nM | 100 to 1000 nM | < 100 nM | < 100 nM | 1000 to 10000 nM | 1000 to 10000 nM | 1000 to 10000 nM | < 100 nM | 
18 | COc1cc(-c2cc(O)c(-c3ccc(N4CC[C@@](C)(NCC5CC5)C4)nn3)cc2F)cnn1 [Compound 451, 2-{6-[(3R)-3-[(cyclopropylmethyl)amino]-3-methylpyrrolidin-1-yl]pyridazin-3-yl}-4-fluoro-5-(6-methoxypyridazin-4-yl)phenol] | 100 to 1000 nM | 100 to 1000 nM | < 100 nM | < 100 nM | 100 to 1000 nM | 100 to 1000 nM | 100 to 1000 nM | < 100 nM | 
19 | COc1cc(-c2ccc(-c3ccc(OC4CC(C)(C)NC(C)(C)C4)nn3)c(O)c2)cnn1 [Compound 271] | < 100 nM | < 100 nM | < 100 nM | < 100 nM | 100 to 1000 nM | < 100 nM | < 100 nM | < 100 nM | 
20 | Oc1cc(-c2cn[nH]c2)ccc1-c1ccc(N2CCC(NC3(C(F)F)CC3)C2)nn1 (stereo not drawn) [Compound 117, 2-[6-(3-{[1-(difluoromethyl)cyclopropyl]amino}pyrrolidin-1-yl)pyridazin-3-yl]-5-(1H-pyrazol-4-yl)phenol] | > 10000 nM | 1000 to 10000 nM | 1000 to 10000 nM | 1000 to 10000 nM | > 10000 nM | > 10000 nM | > 10000 nM | 100 to 1000 nM | 
